Where a name gives a salt, the structure may show the parent alone.
Question: Which melting point does the source give for `C[C@@H]1CCCN1CCc1ccc2cc(-c3ccc(C#N)cc3)ccc2n1` (as salt: tartrate) [Example 42, 4-(2-{2-[(2R)-2-methyl-1-pyrrolidinyl]ethyl}-6-quinolinyl)benzonitrile] here?
Answer: 164 °C

Question: For `C[C@@H]1CCCN1CCc1ccc2cc(-c3ccc(F)cc3)ccc2n1` (as salt: hydrochloride) [Example 43, 6-(4-fluorophenyl)-2-{2-[(2R)-2-methyl-1-pyrrolidinyl]ethyl}quinoline], which melting point is on record?
Answer: 145 °C

Question: Which melting point does the source give for `C[C@@H]1CCCN1Cc1ccc2cc(-c3ccc(C#N)cc3)ccc2c1` (as salt: hydrochloride) [Example 6, 4-(6-{[(2R)-2-methyl-1-pyrrolidinyl]methyl}-2-naphthyl)benzonitrile] here?
Answer: 212.6 to 213.6 °C

Question: With `C[C@@H]1CCCN1CCc1ccc2cc(-c3cccnc3)ccc2n1` (as salt: hydrochloride) [Example 51, 2-{2-[(2R)-2-methyl-1-pyrrolidinyl]ethyl}-6-(3-pyridinyl)quinoline] as the compound, how does the melting point read?
Answer: 205 to 207 °C

Question: With `C[C@@H]1CCCN1CCc1ccc2cc(-c3cccc(C#N)c3)ccc2c1` [Example 7, 3-(6-{2-[(2R)-2-methyl-1-pyrrolidinyl]ethyl}-2-naphthyl)benzonitrile] as the compound, how does the melting point read?
Answer: 228.5 to 231.6 °C

Question: For `C[C@@H]1CCCN1CCc1ccc2cc(C(=O)c3cccc(F)c3)ccc2n1` (as salt: hydrochloride) [Example 50, (3-fluorophenyl)(2-{2-[(2R)-2-methyl-1-pyrrolidinyl]ethyl}-6-quinolinyl)methanone], which melting point is on record?
Answer: 162 to 164 °C (dec.)

Question: With `C[C@@H]1CCCN1CCc1ccc2cc(-c3ccc(C(F)(F)F)cc3)ccc2n1` (as salt: hydrochloride) [Example 47, 2-{2-[(2R)-2-methyl-1-pyrrolidinyl]ethyl}-6-[4-(trifluoromethyl)phenyl]quinoline] as the compound, how does the melting point read?
Answer: 143 to 145 °C (dec.)

Question: With `C[C@@H]1CCCN1CCc1ccc2cc(Br)ccc2c1` (as salt: HCl) [Example 2, (2R)-1-[2-(6-bromo-2-naphthyl)ethyl]-2-methylpyrrolidine] as the compound, how does the melting point read?
Answer: 247.3 to 250.7 °C

Question: Which melting point does the source give for `COc1ccc(-c2ccc3nc(CCN4CCC[C@H]4C)ccc3c2)cc1` (as salt: hydrochloride) [Example 46, 6-(4-methoxyphenyl)-2-{2-[(2R)-2-methyl-1-pyrrolidinyl]ethyl}quinoline] here?
Answer: 165 °C (dec.)
